In patent US8268990B2, “Compounds” (AstraZeneca AB, priority 2007, dated 2012):

Molecular target: T1, Recombinant human TLR7 (Homo sapiens, UniProt Q9NYK1)
T1 construct: expressed in transfected cells; host or cells: HEK293 cell line stably expressing the pNiFty2-SEAP reporter plasmid; TLR7 in vector pUNO, blasticidin selection
T1 sequence (Q9NYK1 27-1049): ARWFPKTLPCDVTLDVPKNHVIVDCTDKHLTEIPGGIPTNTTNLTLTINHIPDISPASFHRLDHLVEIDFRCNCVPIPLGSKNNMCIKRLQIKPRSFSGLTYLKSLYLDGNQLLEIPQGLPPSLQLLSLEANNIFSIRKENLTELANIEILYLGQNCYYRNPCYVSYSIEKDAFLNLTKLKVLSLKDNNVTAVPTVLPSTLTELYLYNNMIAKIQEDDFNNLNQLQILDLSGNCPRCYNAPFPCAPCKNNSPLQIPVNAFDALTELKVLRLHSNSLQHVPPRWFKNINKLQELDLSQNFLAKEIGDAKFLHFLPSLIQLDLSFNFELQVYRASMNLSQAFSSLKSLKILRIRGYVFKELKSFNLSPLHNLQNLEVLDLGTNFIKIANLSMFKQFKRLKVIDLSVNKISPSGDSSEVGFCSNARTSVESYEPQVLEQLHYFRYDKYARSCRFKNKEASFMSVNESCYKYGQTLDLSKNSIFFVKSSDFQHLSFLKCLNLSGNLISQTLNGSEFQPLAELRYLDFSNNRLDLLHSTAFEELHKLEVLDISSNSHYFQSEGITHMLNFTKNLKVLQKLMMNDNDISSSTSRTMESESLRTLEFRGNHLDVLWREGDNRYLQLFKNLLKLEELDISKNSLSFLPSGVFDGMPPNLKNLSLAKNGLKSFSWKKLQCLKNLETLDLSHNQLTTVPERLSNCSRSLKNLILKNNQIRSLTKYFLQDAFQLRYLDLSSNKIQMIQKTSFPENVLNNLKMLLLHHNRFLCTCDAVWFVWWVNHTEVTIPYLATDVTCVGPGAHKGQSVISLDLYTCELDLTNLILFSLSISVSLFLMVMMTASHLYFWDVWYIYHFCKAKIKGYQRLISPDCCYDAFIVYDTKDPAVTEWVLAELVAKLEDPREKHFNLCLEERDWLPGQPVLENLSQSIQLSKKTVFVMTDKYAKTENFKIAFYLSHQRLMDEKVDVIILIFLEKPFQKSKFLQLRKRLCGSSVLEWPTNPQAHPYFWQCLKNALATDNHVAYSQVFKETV
Assay: Human TLR7 Assay (SEAP reporter);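 further: SEAP driven by an NFkB-responsive composite promoter, pEC50 read at half of each compound's own maximal SEAP induction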
Assay type: cell-based
Conditions: HEK293 cell line stably expressing human TLR7 and pNiFty2-SEAP reporter; SEAP induction after overnight incubation at 37° C., 0.1% (v/v) DMSO

Row | EC50 [nM] | Compound
1 | 501 | CCCCCNc1nc(N)nc(C)c1CCCNCc1cccc(CC(=O)OC)c1 [Example 1, Methyl 2-(3-((3-(2-Amino-4-methyl-6-(pentylamino)pyrimidin-5-yl)propylamino)methyl)phenyl)acetate]
2 | 1000 | CCCCCNc1nc(N)nc(C)c1CCCNCc1ccc(CC(=O)OC)cc1 [Example 2, Methyl 2-(4-((3-(2-amino-4-methyl-6-(pentylamino)pyrimidin-5-yl)propylamino)methyl)phenyl)acetate]
3 | 631 | CCCCCNc1nc(N)nc(C)c1CCCN(Cc1cccc(CC(=O)OC)c1)C(=O)CN(C)C [Example 3, Methyl 2-(3-((N-(3-(2-amino-4-methyl-6-(pentylamino)pyrimidin-5-yl)propyl)-2-(dimethylamino)acetamido)methyl)phenyl)acetate]
4 | 398 | CCCCCNc1nc(N)nc(C)c1CCCN(Cc1ccc(CC(=O)OC)cc1)C(=O)CN(C)C [Example 4, Methyl 2-(4-((N-(3-(2-amino-4-methyl-6-(pentylamino)pyrimidin-5-yl)propyl)-2-(dimethylamino)acetamido)methyl)phenyl)acetate]
5 | 631 | CCCCCNc1nc(N)nc(C)c1CCCN(Cc1cccc(CC(=O)OC)c1)C(=O)CN1CCC[C@H]1C(=O)OC [Example 5, (S)-Methyl 1-(2-((3-(2-amino-4-methyl-6-(pentylamino)pyrimidin-5-yl)propyl)(3-(2-methoxy-2-oxoethyl)benzyl)amino)-2-oxoethyl)pyrrolidine-2-carboxylate]
6 | 2510 | CCCCCNc1nc(N)nc(C)c1CCCN(Cc1cccc(CC(=O)OC)c1)C(=O)CN1CCC(O)CC1 [Example 7, Methyl 2-(3-((N-(3-(2-amino-4-methyl-6-(pentylamino)pyrimidin-5-yl)propyl)-2-(4-hydroxypiperidin-1-yl)acetamido)methyl)phenyl)acetate]
7 | 2510 | CCCCCNc1nc(N)nc(C)c1CCCN(Cc1cccc(CC(=O)OC)c1)C(=O)CN1CCCN(C(C)=O)CC1 [Example 8, Methyl 2-(3-((2-(4-acetyl-1,4-diazepan-1-yl)-N-(3-(2-amino-4-methyl-6-(pentylamino)pyrimidin-5-yl)propyl)acetamido)methyl)phenyl)acetate]
8 | 3980 | CCCCCNc1nc(N)nc(C)c1CCCN(Cc1cccc(CC(=O)OC)c1)C(=O)CN1CCN(CCCN(C)C)CC1 [Example 9, Methyl 2-(3-((N-(3-(2-amino-4-methyl-6-(pentylamino)pyrimidin-5-yl)propyl)-2-(4-(3-(dimethylamino)propyl)piperazin-1-yl)acetamido)methyl)phenyl)acetate]
9 | 1580 | CCCCCNc1nc(N)nc(C)c1CCCN(Cc1cccc(CC(=O)OC)c1)C(=O)CN(C)CCO [Example 10]
10 | 1000 | CCCCCNc1nc(N)nc(C)c1CCCN(Cc1cccc(CC(=O)OC)c1)C(=O)CCC(=O)OC [Example 11, Methyl 4-((3-(2-amino-4-methyl-6-(pentylamino)pyrimidin-5-yl)propyl)(3-(2-methoxy-2-oxoethyl)benzyl)amino)-4-oxobutanoate]
11 | 1580 | CCCCCNc1nc(N)nc(C)c1CCCN(Cc1cccc(CC(=O)OC)c1)C(=O)CCCN(C)C [Example 12, Methyl 2-(3-((N-(3-(2-amino-4-methyl-6-(pentylamino)pyrimidin-5-yl)propyl)-4-(dimethylamino)butanamido)methyl)phenyl)acetate]
12 | 2510 | CCCCCNc1nc(N)nc(C)c1CCCN(Cc1cccc(CC(=O)OC)c1)S(C)(=O)=O [Example 13, Methyl 2-(3-((N-(3-(2-amino-4-methyl-6-(pentylamino)pyrimidin-5-yl)propyl)methylsulfonamido)methyl)phenyl)acetate]
13 | 1260 | CCCCCNc1nc(N)nc(C)c1CCCN(Cc1cccc(CC(=O)OC)c1)S(=O)(=O)c1cn(C)cn1 [Example 14, Methyl 2-(3-((N-(3-(2-amino-4-methyl-6-(pentylamino)pyrimidin-5-yl)propyl)-1-methyl-1H-imidazole-4-sulfonamido)methyl)phenyl)acetate]
14 | 398 | CCCCCNc1nc(N)nc(C)c1CCCN(Cc1ccc(CC(=O)OC)cc1)C(=O)CN(C)CCOC [Example 15, Methyl 2-(4-((N-(3-(2-amino-4-methyl-6-(pentylamino)pyrimidin-5-yl)propyl)-2-((2-methoxyethyl)(methyl)amino)acetamido)methyl)phenyl)acetate]
15 | 1000 | CCCCCNc1nc(N)nc(C)c1CCCCNCc1cccc(CC(=O)OC)c1 [Example 17, Methyl 2-(3-((4-(2-amino-4-methyl-6-(pentylamino)pyrimidin-5-yl)butylamino)methyl)phenyl)acetate]
16 | 1580 | CCCC[C@@H](CCO)Nc1nc(N)nc(C)c1CCCNCc1ccc(CC(=O)OC)cc1 [Example 18, (S)-Methyl 2-(4-((3-(2-amino-4-(1-hydroxyheptan-3-ylamino)-6-methylpyrimidin-5-yl)propylamino)methyl)phenyl)acetate]
17 | 2510 | CCCC[C@@H](CCO)Nc1nc(N)nc(C)c1CCCN(Cc1ccc(CC(=O)OC)cc1)C(=O)CN(C)C [Example 19, (S)-Methyl 2-(4-((N-(3-(2-amino-4-(1-hydroxyheptan-3-ylamino)-6-methylpyrimidin-5-yl)propyl)-2-(dimethylamino)acetamido)methyl)phenyl)acetate]
18 | 2000 | CCCCCNc1nc(N)nc(C)c1Cc1cccc(CC(=O)OC)c1 [Example 20, Methyl 2-(3-((2-amino-4-methyl-6-(pentylamino)pyrimidin-5-yl)methyl)phenyl)acetate]
19 | 15.8 | CCCCCNc1nc(N)nc(C)c1Cc1ccc(CC(=O)OC)cc1OC [Example 21, Methyl 2-(4-((2-amino-4-methyl-6-(pentylamino)pyrimidin-5-yl)methyl)-3-methoxyphenyl)acetate]
20 | 631 | CCCCCNc1nc(N)nc(C)c1Cc1ccc(CC(=O)OC)cc1F [Example 22, Methyl 2-(4-((2-amino-4-methyl-6-(pentylamino)pyrimidin-5-yl)methyl)-3-fluorophenyl)acetate]
21 | 1000 | CCCCCNc1nc(N)nc(C)c1CCCNC(=O)Cc1ccc(CC(=O)OC)cc1 [Example 23, Methyl 2-(4-(2-(3-(2-amino-4-methyl-6-(pentylamino)pyrimidin-5-yl)propylamino)-2-oxoethyl)phenyl)acetate]
22 | 1000 | CCCCCNc1nc(N)nc(C)c1CCCNC(=O)Cc1cccc(CC(=O)OC)c1 [Example 24, Methyl 2-(3-(2-(3-(2-amino-4-methyl-6-(pentylamino)pyrimidin-5-yl)propylamino)-2-oxoethyl)phenyl)acetate]
23 | 794 | CCCCCNc1nc(N)nc(C)c1CCCNCc1cccc(OCC(=O)OC)c1 [Example 25, Methyl 2-(3-((3-(2-amino-4-methyl-6-(pentylamino)pyrimidin-5-yl)propylamino)methyl)phenoxy)acetate]
24 | 794 | CCCCCNc1nc(N)nc(C)c1CCCN(Cc1ccc(CC(=O)OC)cc1)C(=O)CN1CCCC(c2ccc(S(C)(=O)=O)cc2)C1 (stereo not shown) [Example 26, Methyl 2-(4-((N-(3-(2-amino-4-methyl-6-(pentylamino)pyrimidin-5-yl)propyl)-2-(3-(4-(methylsulfonyl)phenyl)piperidin-1-yl)acetamido)methyl)phenyl)acetate]
25 | 2000 | CCCCCNc1nc(N)nc(C)c1CCCN(Cc1ccc(CC(=O)OC)cc1)C(=O)CN1CCOCC1 [Example 27, Methyl 2-(4-((N-(3-(2-amino-4-methyl-6-(pentylamino)pyrimidin-5-yl)propyl)-2-morpholinoacetamido)methyl)phenyl)acetate]
26 | 1260 | CCCCCNc1nc(N)nc(C)c1CCCN(Cc1ccc(CC(=O)OC)cc1)C(=O)CN1CCC(c2ccccc2)CC1 [Example 28, Methyl 2-(4-((N-(3-(2-amino-4-methyl-6-(pentylamino)pyrimidin-5-yl)propyl)-2-(4-phenylpiperidin-1-yl)acetamido)methyl)phenyl)acetate]
27 | 794 | CCCCCNc1nc(N)nc(C)c1CCCN(Cc1ccc(CC(=O)OC)cc1)C(=O)CN1CCCCC1 [Example 29, Methyl 2-(4-((N-(3-(2-amino-4-methyl-6-(pentylamino)pyrimidin-5-yl)propyl)-2-(piperidin-1-yl)acetamido)methyl)phenyl)acetate]
28 | 31.6 | CCC[C@@H](CO)Nc1nc(N)nc(C)c1Cc1ccc(CC(=O)OC)cc1OC [Example 30, (S)-Methyl 2-(4-((2-amino-4-(1-hydroxypentan-2-ylamino)-6-methylpyrimidin-5-yl)methyl)-3-methoxyphenyl)acetate]
